Assay results as given in patent US20120301895A1, “METHODS OF MODULATING BINDING OF SON OF SEVENLESS TO PHOSPHATIDIC ACID AND IDENTIFYING COMPOUNDS THAT MODULATE SUCH BINDING” (THE RESEARCH FOUNDATION OF STATE UNIVERSITY OF NEW YORK, priority 2007, published 2012).

What was measured:
[1] = test system: PLD activity in Calu-1 cells; assay: In vivo PLD activity in Calu-1 lung cancer cells; type: cell-based, human; settings: honokiol 20 μM, 4 hr
Protocol: In FIG. 17A, T24 and Calu1 cells (obtained from the American Type Culture Collection) were plated in DMEM containing 10% serum for 48 hr and then shifted to either 10% serum or 0.5% serum overnight as indicated. Honokiol (20 μM) or control ethanol was then added for 4 hr as indicated. [^3H]-Myristate was added with the honokiol. After 4 hr, BtOH (0.7%) was added for 20 min, at which time the cells were harvested and the level of phosphatidyl-BtOH (P-Bt) was determined as in FIGS. 12A-C. The experiments shown are representative of at least two independent experiments. In FIG. 17B, T24 and Calu-1 cells were plated in DMEM with 10% serum for 48 hr then changed to DMEM containing either 10% or 0.5% serum overnight as indicated. […]
For in vivo PLD activity, cells were plated in 60 mm culture dishes in DMEM with 10% serum at a density that would allow them to grow to about 80% confluence after 2 days, then cells were shifted to DMEM containing 0.5% or 10% serum as indicated in the figure legends overnight. […] Briefly, PLD activity was measured by the release of [methyl-^3H] choline from [choline-methyl-^3H]dipalmitoyl-phosphatidylcholine. […] Free [methyl-^3H] choline was separated from precipitated lipids and proteins by centrifugation and was analyzed by liquid scintillation counting. […]

[2] = test system: MDA-MB-231 human breast cancer cells; settings: Wolf et al. 2007; cited from earlier work
[3] = test system: T24 cells; assay: Cell viability and PARP cleavage in T24 cells; type: cell-based, human; settings: honokiol 20 μM, 0.5% serum
Protocol: In FIG. 17A, T24 and Calu1 cells (obtained from the American Type Culture Collection) were plated in DMEM containing 10% serum for 48 hr and then shifted to either 10% serum or 0.5% serum overnight as indicated. Honokiol (20 μM) or control ethanol was then added for 4 hr as indicated. [^3H]-Myristate was added with the honokiol. After 4 hr, BtOH (0.7%) was added for 20 min, at which time the cells were harvested and the level of phosphatidyl-BtOH (P-Bt) was determined as in FIGS. 12A-C. The experiments shown are representative of at least two independent experiments. In FIG. 17B, T24 and Calu-1 cells were plated in DMEM with 10% serum for 48 hr then changed to DMEM containing either 10% or 0.5% serum overnight as indicated. Honokiol (20 μM) or control ethanol was then added either at the time of changing media (24 hr), or 4 hr before harvesting as in FIGS. 14A-E, at which time the cells were examined for cell viability or PARD cleavage. […]
Cell viability was determined by trypan blue exclusion. […] After 10 min, trypan blue uptake (dead cells) was determined by counting on a hemocytometer. Apoptosis was evaluated by examination of cleavage of the caspase 3 substrate PARP as described previously (Chen et al., “Alternative Phospholipase D/mTOR Survival Signal in Human Breast Cancer Cells,” Oncogene 24:672-9 (2005), which is hereby incorporated by reference in its entirety). […]

In the case of `C=CCc1ccc(O)c(-c2ccc(O)c(CC=C)c2)c1` [honokiol, Honokiol], the “stress-induced PLD activity” value ([1]; 0.5% serum) is listed as “suppressed”, the “PLD activity observed in the presence of serum” value ([1]; 10% serum) is listed as “little effect” and the “growth of MDA-MB-231 cells in mouse xenograft” value [2] is listed as “suppress the growth”. For the same compound, the PARP cleavage [3] was “induced” and the cell death [3] was “induced”.
